Test results taken from patent US12403129B2, “Isotope-enriched 3-amino-1-propanesulfonic acid derivatives for the treatment of cerebrovascular disease” (RISEN (SUZHOU) PHARMA TECH CO., LTD., priority 2021, dated 2025).
Entries after “also recorded” stand apart in the source; their conditions may differ.

What was measured:
[1] = tested on: rat model of dementia caused by multiple cerebral infarction; assay: Cognitive tests in rat model of dementia caused by multiple cerebral infarction; type: in vivo, SD rats; conditions: for Discrimination coefficient for new objects, p compared with model group / Priority index for new objects, p compared with model group: n = 12-14
Protocol: 135 SPF grade SD rats (75 females, 60 males, weighing 200-220 g) were used. Anesthesia was performed by intraperitoneal injection of 3.5% chloral hydrate (350 mg/kg). After dorsal fixation, neck hair removal and iodophor disinfection, animals were cut along the middle of the neck to separate the right common carotid artery, external carotid artery and internal carotid artery. The common carotid artery was temporarily clamped by the artery clamp, the left external carotid artery was retrogradely punctured to the beginning of the left internal carotid artery with a pediatric scalp needle, and then 0.4 ml of embolic normal saline suspension was slowly injected with a syringe (the preparation of embolic normal saline suspension was as follows: blood was collected from the abdominal aorta of the same rat, dried naturally in a 37° C. incubator, and prepared for 80-200 minutes to form a blood clot; during application, 0.3 ml normal saline was added to every 10 mg blood clot), and the common carotid artery clamp was opened at the same time, then the external carotid artery was ligated and the skin was sutured. In the sham operation group, 0.4 ml normal saline was used instead of embolic suspension. The experimental animals were randomly divided into 6 groups according to weight balance, as follows: sham operation group, model group, positive control group (donepezil) and test compound group (different doses). There were 12-14 rats in each group. The animals in each group began to give drugs by gavage after modeling until the end of the experiment. The animals underwent Y maze experiment on the 16th day of administration, new object discrimination experiment on the 17th-20th day, Morris water maze experiment on the 22nd-27th day, and dark avoidance experiment on the 28th-29th day. On the 30th day, animals were sacrificed and tissues harvested for analysis.
The main pathological indexes included investigation of the improvement of learning and memory impairment in the dementia model animal by test compound using behavioral experimental methods such as Y maze, new object discrimination, Morris water maze and passive avoidance test (dark avoidance); investigation of the protective effect of test compound on mitochondria by detecting the content of ATP in hippocampus and cortex of rats; and investigation of levels of oxidative stress in the rat brain by measuring activity of superoxide dismutase (SOD, which is an oxygen free-radical scavenger), glutathione peroxidase (GSH-Px, which scavenges lipid peroxides induced by reactive oxygen species and —OH), nitric oxide synthase (NOS), malondialdehyde (MDA), and nitric oxide (NO). The ultrastructure of nerve cells (including nucleus, mitochondria and synapse) was investigated using immunofluorescence and transmission electron microscope. Expression of synaptic associated proteins SYP and PSD95 was detected by Western blotting. Experimental results for compound 4 on the concentration of nitric oxide (NO), the activity of nitric oxide synthase (NOS) and the ultrastructure of nerve cells in the rat model of dementia caused by multiple cerebral infarction are shown in FIGS. 7-11. Experimental results were statistically analyzed using IBM SPSS 21.0 software. The differences between groups were compared by one-way ANOVA or two-way ANOVA (water maze directional navigation) and LSD test.

ATP = ATP content of hippocampus and cortex, multiple cerebral infarction dementia rats; type: in vivo, SD rats; conditions: compared with the model group, p<0.05
Protocol: (§1) 135 SPF grade SD rats (75 females, 60 males, weighing 200-220 g) were used. Anesthesia was performed by intraperitoneal injection of 3.5% chloral hydrate (350 mg/kg). After dorsal fixation, neck hair removal and iodophor disinfection, animals were cut along the middle of the neck to separate the right common carotid artery, external carotid artery and internal carotid artery. […]
(§2) The main pathological indexes included investigation of the improvement of learning and memory impairment in the dementia model animal by test compound using behavioral experimental methods such as Y maze, new object discrimination, Morris water maze and passive avoidance test (dark avoidance); investigation of the protective effect of test compound on mitochondria by detecting the content of ATP in hippocampus and cortex of rats; and investigation of levels of oxidative stress in the rat brain by measuring activity of superoxide dismutase (SOD, which is an oxygen free-radical scavenger), glutathione peroxidase (GSH-Px, which scavenges lipid peroxides induced by reactive oxygen species and —OH), nitric oxide synthase (NOS), malondialdehyde (MDA), and nitric oxide (NO). […] Expression of synaptic associated proteins SYP and PSD95 was detected by Western blotting. […] Experimental results were statistically analyzed using IBM SPSS 21.0 software. […]

nitric oxide (NO) = assay: NO concentration in cerebral cortex, multiple cerebral infarction dementia rats; type: in vivo, SD rats; conditions: compared with the model group, p<0.05
Protocol: (§3) Compound 4, 120 mg/kg, bid; D. Compound 4, 240 mg/kg, bid; E. Compound 4, 480 mg/kg, bid; F. Donepezil, 0.9 mg/kg. Compared with sham operation group: ### P<0.001; Compared with the model group: ** P<0.01, *** P<0.001.
(§4) 135 SPF grade SD rats (75 females, 60 males, weighing 200-220 g) were used. Anesthesia was performed by intraperitoneal injection of 3.5% chloral hydrate (350 mg/kg). After dorsal fixation, neck hair removal and iodophor disinfection, animals were cut along the middle of the neck to separate the right common carotid artery, external carotid artery and internal carotid artery. The common carotid artery was temporarily clamped by the artery clamp, the left external carotid artery was retrogradely punctured to the beginning of the left internal carotid artery with a pediatric scalp needle, and then 0.4 ml of embolic normal saline suspension was slowly injected with a syringe (the preparation of embolic normal saline suspension was as follows: blood was collected from the abdominal aorta of the same rat, dried naturally in a 37° C. incubator, and prepared for 80-200 minutes to form a blood clot; during application, 0.3 ml normal saline was added to every 10 mg blood clot), and the common carotid artery clamp was opened at the same time, then the external carotid artery was ligated and the skin was sutured. […]

[2] = tested on: nitric oxide synthase (NOS); assay: NOS activity in cerebral cortex, multiple cerebral infarction dementia rats; type: in vivo, SD rats; conditions: compared with the model group, p<0.05
Protocol: as §3, §4

MBP = MBP expression, multiple cerebral infarction dementia rats; type: in vivo, SD rats; conditions: compared with the model group, p<0.05
Protocol: as §1, §2

[3] = tested on: nerve cells (nucleus, mitochondria and synapse); assay: Ultrastructure of nerve cells (transmission electron microscope), multiple cerebral infarction dementia rats; type: in vivo, SD rats; conditions: compared with the model group, p<0.05
Protocol: Compound 4, 120 mg/kg, bid; D. Compound 4, 240 mg/kg, bid; E. Compound 4, 480 mg/kg, bid; F. Donepezil, 0.9 mg/kg.
as §1
The main pathological indexes included investigation of the improvement of learning and memory impairment in the dementia model animal by test compound using behavioral experimental methods such as Y maze, new object discrimination, Morris water maze and passive avoidance test (dark avoidance); investigation of the protective effect of test compound on mitochondria by detecting the content of ATP in hippocampus and cortex of rats; and investigation of levels of oxidative stress in the rat brain by measuring activity of superoxide dismutase (SOD, which is an oxygen free-radical scavenger), glutathione peroxidase (GSH-Px, which scavenges lipid peroxides induced by reactive oxygen species and —OH), nitric oxide synthase (NOS), malondialdehyde (MDA), and nitric oxide (NO). […] Expression of synaptic associated proteins SYP and PSD95 was detected by Western blotting. […]

SYP = SYP expression by Western blotting, multiple cerebral infarction dementia rats; type: in vivo, SD rats; conditions: compared with the model group, p<0.05
Protocol: as §1, §2

PSD95 = PSD95 expression by Western blotting, multiple cerebral infarction dementia rats; type: in vivo, SD rats; conditions: compared with the model group, p<0.05
Protocol: as §1, §2

[4] = cited from earlier work
[5] = Test group vs model group, n = 12-14, dose not given
[6] = first listing in Table VII, Test group vs model group
[7] = second listing in Table VII, Test group vs model group
[8] = 2-h time point, oral, 0.72 mmol/kg

[2H]C([2H])(CCS(=O)(=O)O)NC(=O)[C@@H](N)C(C)C [compound 4, 3-((L-valyl)amino)-3,3-dideuterium-1-propanesulfonic Acid]
Swimming time in target quadrant, p compared with model group [1, 5]: p < 0.05
The incubation period for entering the darkroom, p compared with model group [1, 5]: p < 0.05
Times of threading, p compared with model group [1, 5]: p < 0.05
Discrimination coefficient for new objects, p compared with model group [1, 6]: p < 0.05
Priority index for new objects, p compared with model group [1, 6]: p < 0.05
working memory, image recognition and memory, spatial memory and long-term memory impairment ([1]; rat model of dementia caused by multiple infarction): may improve
discrimination coefficient to new objects in the new object discrimination experiment ([1]; rats, gavage): can improve
escape latency of directional navigation ([1]; rats, gavage): can improve
number of errors entering the dark room in the dark avoidance experiment ([1]; rats, gavage): can improve
number of times of crossing the platform ([1]; rats, gavage): can improve
percentage of swimming distance in the target quadrant ([1]; rats, gavage): can improve
priority index to new objects in the new object discrimination experiment ([1]; rats, gavage): can improve
spontaneous alternating reaction rate in the Y maze ([1]; rats, gavage): can improve
swimming time in the target quadrant ([1]; rats, gavage): can improve
total swimming distance in the water maze test ([1]; rats, gavage): can improve
Discrimination coefficient for new objects, p compared with model group [1, 7]: p < 0.05
Priority index for new objects, p compared with model group [1, 7]: p < 0.01
ATP content of hippocampus and cerebral cortex (ATP): significantly increased
NO content (nitric oxide (NO)): significantly reduced
NOS activity [2]: significantly reduced
MBP expression (MBP): increased
ultrastructure of nerve cells [3]: improved
SYP expression (SYP): significantly increased
PSD95 expression (PSD95): significantly increased
concentration of metabolite (2-carboxy-1-ethanesulfonic acid) in plasma compared to 3APS (of natural abundance) [4, 8]: much lower
plasma drug concentration compared to 3APS (of natural abundance) [4, 8]: higher
plasma drug exposure compared to 3APS (of natural abundance) ([4]; mole-equivalent oral dose (0.72 mmol/kg), mouse plasma): improved plasma drug exposure significantly; also recorded: even greater improvement of drug exposure
increase of Cmax for the drug concentration ([4]; mole-equivalent oral dose, mouse plasma, versus 3APS of natural abundance): ~2 fold
drug metabolism / metabolic profile compared to 3APS ([4]; mole-equivalent oral dose, mouse): delayed drug metabolism
conversion of prodrug to compound 1 in the subject ([4]; oral, mouse plasma): converted easily to compound 1
